Experimental findings from patent publication US20240108598A1, “Danegaptide for Use in the Treatment or Prevention of a Kidney Disease” (CIANA THERAPEUTICS APS, priority 2021, published 2024) are described below.

The subject of one data set is HK2 cells. Nature of the data set: Lactate dehydrogenase (LDH) release assay. Type of data set: cell-based. The following applies: 48 h. How it is done:
HK2 cells were cultured in low glucose (5 mM) for 48 h, prior to being serum-starved overnight and subsequently treated with TGFβ1 (10 ng/mL)±danegaptide (50 nM-1 μM) for 48 h (FIG. 1A, n=3).
The release of lactate dehydrogenase (LDH) into media as a result of plasma membrane damage is commonly used to evaluate cell death or cytotoxicity. HK2 cells were seeded in 96-well plates and cultured in low glucose DMEM/F12 (5 mM) for 48 h, prior to overnight serum-starvation. Cells were then stimulated for 48 h with TGFβ1 (10 ng/ml)±danegaptide (50-1000 nM). The LDH-cytotoxicity assay kit II (Abcam) was used to quantify LDH according to the manufacturer's instructions.

Data set [1] concerns the target T1, Cx43 hemichannels (Homo sapiens, UniProt P17302).
T1 construct: host or cells: HK2 human kidney proximal tubule epithelial cell line
The experiment in a line: Carboxyfluorescein dye uptake assay in HK2 cells. Type of data set: cell-based. The following applies: for carboxyfluorescein dye uptake, of control: 48 h. The procedure: (§1) In panel A, HK2 cells were cultured in low glucose (5 mM) with/without TGFβ1 (10 ng/ml)±danegaptide (50, 100 and 1000 nM) for 48 h and cell viability assessed. Results are presented as mean±SEM, n=3. […] Addition of danegaptide (50 or 100 nM) reduced dye uptake, returning fluorescence intensity to control levels. Intensity is expressed as percentage compared to low glucose control and is representative of 3 separate experiments. Data is presented as mean±SEM, n=3 with key significances indicated (**P<0.01, ***P<0.001); one-way ANOVA and Tukey's post-test).
HK2 and HPTEC cells were seeded onto fluorodishes (22 mm diameter) and cultured in low glucose DMEM/F12 (5 mmol/1) for 48 h. Following an overnight serum-starvation, cells were incubated with TGFβ1 (10 ng/ml)±danegaptide (100 nM) for 48 h. For subsequent steps, a balanced salt solution (BSS, pH7.0) was used, comprising of NaCl (137 mM), KCl (5.4 mM), MgSO4 (0.8 mM), Na2HPO4 (0.3 mM), KH2PO4 (0.4 mM), NaHCO3 (4.2 mM), HEPES (10 mM) and glucose (5 mM). To induce dye uptake, cells were exposed to Ca^2+-free BSS (zero CaCl2+EGTA (1 mM)) plus carboxyfluorescein (200 μM) for 10 min, followed by a 10 min period in Ca^2+-containing BSS (1.3 mM) plus carboxyfluorescein (200 μM). Dishes were subsequently washed with Ca^2+-containing BSS (12 mls). Images were acquired with a Cool Snap HQ CCD camera (Roper Scientific) and Metamorph software (Universal Imaging Corp., Marlow, Bucks, UK). ImageJ was used to quantify dye uptake, where a region of interest (ROI) was drawn around each cell (approx. 10-15 cells/dish) and mean pixel intensity measured. A background fluorescence value was subtracted from each ROI.

Data set [2] has as its target T1, Cx43 hemichannels. Nature of the data set: Carboxyfluorescein dye uptake assay in primary hPTECs. The data set is classed as cell-based. The following applies: 48 h. How it is done: as §1
HK2 and HPTEC cells were seeded onto fluorodishes (22 mm diameter) and cultured in low glucose DMEM/F12 (5 mmol/1) for 48 h. Following an overnight serum-starvation, cells were incubated with TGFβ1 (10 ng/ml)±danegaptide (100 nM) for 48 h. For subsequent steps, a balanced salt solution (BSS, pH7.0) was used, comprising of NaCl (137 mM), KCl (5.4 mM), MgSO4 (0.8 mM), Na2HPO4 (0.3 mM), KH2PO4 (0.4 mM), NaHCO3 (4.2 mM), HEPES (10 mM) and glucose (5 mM). […] ImageJ was used to quantify dye uptake, where a region of interest (ROI) was drawn around each cell (approx. 10-15 cells/dish) and mean pixel intensity measured. A background fluorescence value was subtracted from each ROI.

For a further data set, the system named is primary hPTECs. Nature of the data set: Western blotting of adherens and tight junction proteins. The data set is classed as cell-based, human. As to conditions: 48 h. How it is done: Primary hPTECs were cultured in low (5 mM) glucose±TGFβ1 (10 ng/mL)±danegaptide (100 nM) for 48 h. Expression of E-cadherin (ECAD), N-cadherin (NCAD) and vimentin (panel A), and Claudin-2 and Zonula Occludens (ZO-1) and b-catenin (panel B) were assessed via western blotting. TGFβ1 reduced E-cadherin, Claudin-2 and ZO-1 expression and increased N-cadherin and vimentin expression (**P<0.01, ***P<0.001; mean±SEM, n=3). Effects were partially or completely reversed by danegaptide (100 nM; ▴P<0.05 and ▴▴▴P<0.001; mean±SEM, n=3). Representative blots for each protein are shown, with expression normalised by re-probing for α-tubulin as a loading control. In panel C, transepithelial electrical resistance (TER) assessed the consequence of altered adherens & tight-junction protein expression on epithelial integrity. HK2 cells were cultured in low (5 mM) glucose on transwell inserts and transepithelial resistance measured.
To determine if danegaptide can negate TGFβ1-mediated changes in adherens and tight junction proteins, hPTECs were incubated with TGFβ1 (10 ng/mL)±danegaptide (100 nM) for 48 h and expression of candidate proteins assessed by Western blotting. Preparation of cytosolic protein from HK2 and HPTEC cells, their separation by SDS-gel electrophoresis and transfer onto Immobilon-FI PVDF membranes have been described previously (Price, G. W.; Chadjichristos, C. E.; Kavvadas, P.; Tang, S. C. W.; Yiu, W. H.; Green, C. R.; Potter, J. A.; Siamantouras, E.; Squires, P. E.; Hills, C. E. Blocking Connexin-43 mediated hemichannel activity protects against early tubular injury in experimental chronic kidney disease. Cell Commun. Signal. 2020, 18). Membranes were blocked using Odyssey blocking buffer (LI-COR), then probed overnight with antibodies against E-cadherin (1:1000), N-cadherin (1:1000), claudin-2 (1:500) and ZO-1 (1:1000), Col I (1:1000), Col IV (1:2000), Fibronectin (1:4000), Laminin (1:500), ILK1 (1:500), beta-catenin (1:2000), Vimentin (1:500), MMP3 (1:500). Bands were visualised using an OdysseyFC and semi-quantified using ImageStudio (v5.2, LI-COR). Additionally, transepithelial electrical resistance (TER) was measured as a functional measure of epithelial cell-cell coupling and paracellular permeability.
In general terms: A western blot detects proteins with antibodies after separation by electrophoresis.

The mark [3] stands for this setting: TGFβ1 10 ng/mL + danegaptide 50 nM.
[4] abbreviates: TGFβ1 10 ng/mL + danegaptide 100 nM.

T1 sequence (P17302 whole entry): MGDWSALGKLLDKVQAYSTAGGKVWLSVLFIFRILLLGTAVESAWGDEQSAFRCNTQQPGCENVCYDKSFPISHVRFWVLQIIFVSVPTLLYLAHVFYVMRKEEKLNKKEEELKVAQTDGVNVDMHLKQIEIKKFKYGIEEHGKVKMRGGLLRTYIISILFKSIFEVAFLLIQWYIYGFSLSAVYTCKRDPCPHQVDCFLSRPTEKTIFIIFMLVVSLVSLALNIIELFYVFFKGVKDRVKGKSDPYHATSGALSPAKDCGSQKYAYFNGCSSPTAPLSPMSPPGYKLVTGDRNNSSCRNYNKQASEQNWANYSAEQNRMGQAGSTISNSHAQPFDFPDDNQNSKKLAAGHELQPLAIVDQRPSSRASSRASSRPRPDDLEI

As for `NCC(=O)N1C[C@H](NC(=O)c2ccccc2)C[C@H]1C(=O)O` [danegaptide, (2S,4R)-1-(2-aminoacetyl)-4-benzamidopyrrolidine2-carboxylic acid], the “LDH release compared to control” value was determined as 106.4±11.6% in the data set on HK2 cells (setting [3]); 113.9±15.6% in the data set with HK2 cells (setting [4]); 113.2±4.3% in the data set on HK2 cells (TGFβ1 10 ng/mL + danegaptide 1 μM); 104.4±4.3% in the data set with HK2 cells (danegaptide alone 50 nM); 95.3±4.7% in the data set on HK2 cells (danegaptide alone 100 nM); 92.6±3.3% in the data set with HK2 cells (danegaptide alone 1 μM). Further, the “carboxyfluorescein dye uptake, of control” value came to 165.5±17.9% at Cx43 hemichannels [1] (setting [3]), 147.6±18.1% on Cx43 hemichannels [1] (setting [4]) and 145±19.7% at Cx43 hemichannels [2] (setting [4]). In addition, at Cx43 hemichannels [1] (danegaptide alone), the carboxyfluorescein dye uptake result was “did not alter dye uptake”. The “concentration of optimal inhibition of carboxyfluorescein dye uptake” value at Cx43 hemichannels [1] (dose range 10 to 1000 nM tested) was in the range of 50 to 100 nM. Besides, the “Claudin-2 expression, of control” value in the data set with primary hPTECs (setting [4]) was 74.6±5%. Further, the “E-cadherin (ECAD) expression, of control” value with primary hPTECs (setting [4]) is listed as 89±7.6%. In addition, in the data set with primary hPTECs (setting [4]), the “N-cadherin (NCAD) expression, of control” value is on record as 161.9±27.4%. The “ZO-1 expression, of control” value in the data set on primary hPTECs (setting [4]) came out at 52.8±5.4%. Further, the “vimentin expression, of control” value in the data set on primary hPTECs (setting [4]) is given as 147.3±8.8%. Further, the “Beta-catenin expression, of control” value in the data set with primary hPTECs (TGFβ1+danegaptide 100 nM) amounted to 151.6±16.8%.
Regarding “TGFβ1: Recombinant hTGFβ1 (Sigma); pro-fibrotic cytokine used to stimulate the cells [reference compound]”, in the data set on HK2 cells (TGFβ1 10 ng/mL alone), the “LDH release compared to control” value came to 109.3±11.3%. Besides, the “carboxyfluorescein dye uptake, of control” value with Cx43 hemichannels [1] (TGFβ1 10 ng/mL alone) amounted to 354.9±32.6%. The “carboxyfluorescein dye uptake, of control” value with Cx43 hemichannels [2] (TGFβ1 10 ng/mL alone) is 310.8±38.6%. In the data set on primary hPTECs (TGFβ1 10 ng/mL alone), the “Claudin-2 expression, of control” value was determined as 44.5±5%; the “E-cadherin (ECAD) expression, of control” value was 33.3±3.3%; the “N-cadherin (NCAD) expression, of control” value came to 224.4±29.6%; the “ZO-1 expression, of control” value came out at 27.8±11.3%. In addition, the “vimentin expression, of control” value with primary hPTECs (TGFβ1 10 ng/mL alone) is 212.9±13%. In addition, the “Beta-catenin expression, of control” value in the data set on primary hPTECs (TGFβ1 alone) came to 149.2±11.2%.
